# Measured values published in publication PMC13192270, “RhlR quorum-sensing receptor ligand sensitivity regulates the differential expression of phenazine genes in Pseudomonas aeruginosa” (Journal of Bacteriology, 2026).
# Residue numbers refer to the chain shown, from its start.
# What was measured:
# WT RhlR in ΔrhlI strain = molecular target: T1, WT RhlR in ΔrhlI strain (Pseudomonas aeruginosa, UniProt P54292); assay: ChIP-seq of RhlR-binding sites; format: cell-based; settings: 2 µM C4HSL
# T1 construct: Comparison of ChIP enrichment from the ΔrhlI and ΔrhlI RhlR T58L strains; endogenous in cells; host or cells: P. aeruginosa UCBPP-PA14 ΔrhlI
# T1 sequence (P54292 1-241): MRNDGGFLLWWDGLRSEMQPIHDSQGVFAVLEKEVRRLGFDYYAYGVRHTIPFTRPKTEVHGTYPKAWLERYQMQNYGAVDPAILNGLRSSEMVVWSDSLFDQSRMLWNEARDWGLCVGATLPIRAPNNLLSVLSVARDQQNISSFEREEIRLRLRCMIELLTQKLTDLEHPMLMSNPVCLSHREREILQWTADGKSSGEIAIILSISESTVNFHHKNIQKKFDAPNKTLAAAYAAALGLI
# Method: (§1) P. aeruginosa strains were grown overnight, back diluted 1:100 in fresh LB media, and grown to an OD600 = 2.0. Crosslinking, lysis, and immunoprecipitation were performed as previously described ([37]).
# [1] = molecular target: T2, RhlR T58L in ΔrhlI strain (Pseudomonas aeruginosa, UniProt P54292, T58L); assay: ChIP-seq of RhlR-binding sites; format: cell-based; settings: 2 µM C4HSL
# T2 construct: expressed in transfected cells; host or cells: P. aeruginosa UCBPP-PA14 ΔrhlI, mutant allele placed on the chromosome at the native rhlR locus
# T2 sequence (P54292 1-241 T58L): T1 sequence (P54292 1-241) with T58L
# Source text: To determine the molecular basis for lower levels of phz gene expression in a background that expressed a hypersensitive variant of RhlR, we assessed expression of the pqsABCDE operon ([51]). PqsE is required for optimal expression of the phz genes and, thus, pyocyanin production. RhlR was previously characterized as a repressor of the pqsABCDE operon. We hypothesized that a C4HSL hypersensitive variant would repress pqsABCDE expression, which could lead to the observed decrease in phz gene expression. Indeed, pqsA RNA levels were 20% lower in a strain expressing RhlR T58L compared to WT RhlR (Fig. 6A; Table 2). To confirm that the decrease in gene expression led to a decrease in the available PqsE protein that was capable of interacting with RhlR to specifically drive it to the phz promoter, we performed western blot analyses to measure PqsE protein levels in strains expressing RhlR variants (Fig. 7A). […] Thus, we hypothesized that when PqsE levels fall below a certain concentration, PqsE homodimerization cannot occur, thereby preventing PqsE-RhlR complex formation and reducing promoter occupancy. […] We highlight phzA1 and phzM, which share a promoter (Fig. S10A), rhlA (Fig. S10B), and lecB (Fig. S10C) because of the role of the phz and rhlA promoters in regulating pyocyanin and rhamnolipid production (Fig. 5) and because lecB is a well-characterized PqsE-dependent promoter ([37]). As expected, RhlR T58L had lower promoter occupancy than WT RhlR at the phzA1 promoter, likely due to the lower levels of PqsE present (Fig. 7B; Fig. S10A). Conversely, RhlR occupancy at the rhlA promoter was nearly unchanged from WT RhlR (Fig. 7B; Fig. S10B), reflecting the ability of RhlR to bind the promoter primarily through its dependency on C4HSL.
# as §1
smiles,measurement,setting,value
"CCCC(=O)N[C@H]1CCOC1=O [C4HSL, N-butyryl-L-homoserine lactone]","ChIP-seq enrichment at PA14_01490 (rahU) (peak 139,733)",WT RhlR in ΔrhlI strain,"1,797.7"
same,"ChIP-seq enrichment at PA14_06320 (peak 560,072)",WT RhlR in ΔrhlI strain,"1,705.2"
same,"ChIP-seq enrichment at PA14_10360 (peak 895,433)",WT RhlR in ΔrhlI strain,"1,134.9"
same,"ChIP-seq enrichment at PA14_16100*, PA14_16110 (peak 1,372,370)",WT RhlR in ΔrhlI strain,"1,180.9"
same,"ChIP-seq enrichment at PA14_18800 (peak 1,620,628)",WT RhlR in ΔrhlI strain,664.1
same,"ChIP-seq enrichment at PA14_18810 operon (peak 1,621,028)",WT RhlR in ΔrhlI strain,127.1
same,"ChIP-seq enrichment at PA14_20130, PA14_20140 (fpr) (peak 1,735,823)",WT RhlR in ΔrhlI strain,258.2
same,"ChIP-seq enrichment at PA14_21020 (azeB) operon, PA14_21030 (peak 1,816,906)",WT RhlR in ΔrhlI strain,"4,251.6"
same,"ChIP-seq enrichment at PA14_22090 (peak 1,921,598)",WT RhlR in ΔrhlI strain,402.5
same,"ChIP-seq enrichment at PA14_28250*, PA14_28260 (peak 2,444,398)",WT RhlR in ΔrhlI strain,126.8
same,"ChIP-seq enrichment at PA14_29620, fhp operon (peak 2,568,048)",WT RhlR in ΔrhlI strain,"2,516.7"
same,"ChIP-seq enrichment at PA14_30570, PA14_30580 (vqsR) (peak 2,647,472)",WT RhlR in ΔrhlI strain,770.7
same,"ChIP-seq enrichment at PA14_30840* (peak 2,677,542)",WT RhlR in ΔrhlI strain,"7,49.74"
same,"ChIP-seq enrichment at PA14_37745 operon (peak 3,364,761)",WT RhlR in ΔrhlI strain,408.8
same,"ChIP-seq enrichment at PA14_48140 operon (peak 4,285,523)",WT RhlR in ΔrhlI strain,311.1
same,"ChIP-seq enrichment at PA14_48530 operon (peak 4,313,855)",WT RhlR in ΔrhlI strain,838.3
same,"ChIP-seq enrichment at PA14_49310 (peak 4,382,169)",WT RhlR in ΔrhlI strain,"1,250.8"
same,"ChIP-seq enrichment at PA14_49740, PA14_49750 operon (peak 4,425,570)",WT RhlR in ΔrhlI strain,"1,588.8"
same,"ChIP-seq enrichment at PA14_57970*, PA14_57980 (peak 5,159,548)",WT RhlR in ΔrhlI strain,826
same,"ChIP-seq enrichment at PA14_59180* (peak 5,268,881)",WT RhlR in ΔrhlI strain,381.4
same,"ChIP-seq enrichment at PA_48530* (peak 4,314,560)",WT RhlR in ΔrhlI strain,258.8
same,"ChIP-seq enrichment at arcD operon (peak 6,093,032)",WT RhlR in ΔrhlI strain,"1,302.3"
same,"ChIP-seq enrichment at hcnA operon, exoY (peak 3,236,436)",WT RhlR in ΔrhlI strain,"2,43.83"
same,"ChIP-seq enrichment at hsiA2 operon, hcpD (peak 3,831,541)",WT RhlR in ΔrhlI strain,"1,370.2"
same,"ChIP-seq enrichment at lasA (peak 3,600,666)",WT RhlR in ΔrhlI strain,239.4
same,"ChIP-seq enrichment at lasB (peak 1,387,361)",WT RhlR in ΔrhlI strain,597.9
same,"ChIP-seq enrichment at lecB, PA14_20620 operon (peak 1,774,336)",WT RhlR in ΔrhlI strain,"16,502.8"
same,"ChIP-seq enrichment at pa1L (peak 2,721,761)",WT RhlR in ΔrhlI strain,204.8
same,"ChIP-seq enrichment at peak 5,414,219",WT RhlR in ΔrhlI strain,519
same,"ChIP-seq enrichment at phzA1 operon, phzM (peak 813,529)",WT RhlR in ΔrhlI strain,"5,438.8"
same,"ChIP-seq enrichment at phzA2 operon (peak 3,561,969)",WT RhlR in ΔrhlI strain,575.2
same,"ChIP-seq enrichment at phzB1*, phzC1 (peak 812,427)",WT RhlR in ΔrhlI strain,"1,614.1"
same,"ChIP-seq enrichment at phzB2*, phzC2 (peak 3,561,157)",WT RhlR in ΔrhlI strain,214.5
same,"ChIP-seq enrichment at phzH (peak 64,211)",WT RhlR in ΔrhlI strain,"1,937.1"
same,"ChIP-seq enrichment at rhlA operon (peak 1,648,391)",WT RhlR in ΔrhlI strain,"4,107.6"
same,"ChIP-seq enrichment at rhlI (peak 1,651,804)",WT RhlR in ΔrhlI strain,562.1
same,"ChIP-seq enrichment at rmlB operon (peak 6,082,366)",WT RhlR in ΔrhlI strain,"2,46.6"
same,"ChIP-seq enrichment at rpsL operon (peak 754,615)",WT RhlR in ΔrhlI strain,580.9
same,"ChIP-seq enrichment at tnpS, tnpT operon (peak 3,188,223)",WT RhlR in ΔrhlI strain,365.2
same,"ChIP-seq enrichment at PA14_01490 (rahU) (peak 139,733)",[1],"1,262.3"
same,"ChIP-seq enrichment at PA14_06320 (peak 560,072)",[1],896.4
same,"ChIP-seq enrichment at PA14_10360 (peak 895,433)",[1],513.5
same,"ChIP-seq enrichment at PA14_16100*, PA14_16110 (peak 1,372,370)",[1],"1,439.9"
same,"ChIP-seq enrichment at PA14_18800 (peak 1,620,628)",[1],405.8
same,"ChIP-seq enrichment at PA14_18810 operon (peak 1,621,028)",[1],87.2
same,"ChIP-seq enrichment at PA14_20130, PA14_20140 (fpr) (peak 1,735,823)",[1],380.5
same,"ChIP-seq enrichment at PA14_21020 (azeB) operon, PA14_21030 (peak 1,816,906)",[1],"3,188.5"
same,"ChIP-seq enrichment at PA14_22090 (peak 1,921,598)",[1],349.8
same,"ChIP-seq enrichment at PA14_28250*, PA14_28260 (peak 2,444,398)",[1],159.5
same,"ChIP-seq enrichment at PA14_29620, fhp operon (peak 2,568,048)",[1],"2,263.3"
same,"ChIP-seq enrichment at PA14_30570, PA14_30580 (vqsR) (peak 2,647,472)",[1],554.8
same,"ChIP-seq enrichment at PA14_30840* (peak 2,677,542)",[1],"4,222.3"
same,"ChIP-seq enrichment at PA14_37745 operon (peak 3,364,761)",[1],433.4
same,"ChIP-seq enrichment at PA14_48140 operon (peak 4,285,523)",[1],340.9
same,"ChIP-seq enrichment at PA14_48530 operon (peak 4,313,855)",[1],867.6
same,"ChIP-seq enrichment at PA14_49310 (peak 4,382,169)",[1],673.4
same,"ChIP-seq enrichment at PA14_49740, PA14_49750 operon (peak 4,425,570)",[1],"2,142.3"
same,"ChIP-seq enrichment at PA14_57970*, PA14_57980 (peak 5,159,548)",[1],228.8
same,"ChIP-seq enrichment at PA14_59180* (peak 5,268,881)",[1],216.4
same,"ChIP-seq enrichment at PA_48530* (peak 4,314,560)",[1],229
same,"ChIP-seq enrichment at arcD operon (peak 6,093,032)",[1],900.8
same,"ChIP-seq enrichment at hcnA operon, exoY (peak 3,236,436)",[1],"1,543.7"
same,"ChIP-seq enrichment at hsiA2 operon, hcpD (peak 3,831,541)",[1],"1,100.7"
same,"ChIP-seq enrichment at lasA (peak 3,600,666)",[1],211.7
same,"ChIP-seq enrichment at lasB (peak 1,387,361)",[1],347.7
same,"ChIP-seq enrichment at lecB, PA14_20620 operon (peak 1,774,336)",[1],"13,604.8"
same,"ChIP-seq enrichment at pa1L (peak 2,721,761)",[1],171.4
same,"ChIP-seq enrichment at peak 5,414,219",[1],697
same,"ChIP-seq enrichment at phzA1 operon, phzM (peak 813,529)",[1],"2,515.8"
same,"ChIP-seq enrichment at phzA2 operon (peak 3,561,969)",[1],562.6
same,"ChIP-seq enrichment at phzB1*, phzC1 (peak 812,427)",[1],968.1
same,"ChIP-seq enrichment at phzB2*, phzC2 (peak 3,561,157)",[1],75.06
same,"ChIP-seq enrichment at phzH (peak 64,211)",[1],800.4
same,"ChIP-seq enrichment at rhlA operon (peak 1,648,391)",[1],"3,584.5"
same,"ChIP-seq enrichment at rhlI (peak 1,651,804)",[1],263.1
same,"ChIP-seq enrichment at rmlB operon (peak 6,082,366)",[1],"2,634"
same,"ChIP-seq enrichment at rpsL operon (peak 754,615)",[1],416.1
same,"ChIP-seq enrichment at tnpS, tnpT operon (peak 3,188,223)",[1],237.1
